Laboratory results as given in US7101878B1 (Agouron Pharmaceuticals, Inc., priority 1998, dated 2006).

Target: T1, mouse GnRH receptor (Mus musculus, UniProt Q01776)
T1 construct: expressed in transfected cells; host or cells: 293 cells
T1 sequence (Q01776 1-327): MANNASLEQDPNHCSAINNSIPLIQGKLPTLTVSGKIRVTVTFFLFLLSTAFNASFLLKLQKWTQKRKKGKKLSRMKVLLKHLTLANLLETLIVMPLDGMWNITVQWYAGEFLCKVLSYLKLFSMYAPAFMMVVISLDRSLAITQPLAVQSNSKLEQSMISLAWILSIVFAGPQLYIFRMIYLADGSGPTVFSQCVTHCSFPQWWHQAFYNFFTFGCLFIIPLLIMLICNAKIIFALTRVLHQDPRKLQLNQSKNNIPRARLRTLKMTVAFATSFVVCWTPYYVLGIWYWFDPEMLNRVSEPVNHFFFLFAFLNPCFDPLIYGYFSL
Assay: Radioligand binding, 125I-GnRH-A, 293 cells expressing mouse GnRH receptors
Details: 10 uM; read-out: % Inhib. @ 10 uM mGnRH
Summary of the method: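 Bound label captured on 0.1% polyethyleneimine-treated GF/C filters, washed three times with PBS, counted. IC50 derived; identical set-up for every species.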

Row | SMILES | inhibition at 10 µM
1 | Cc1cc2c(cc1Cc1ccc(C(=O)N(CCC(c3ccccc3)c3ccccc3)CC3CCCCC3)o1)C(C)(C)CCC2(C)C | 31%
2 | Cc1cc2c(cc1Cc1ccc(C(=O)N(Cc3cccnc3)Cc3cccc(C(F)(F)F)c3)o1)C(C)(C)CCC2(C)C [drawing 1475] | 80%
3 | CCOC(=O)CC1C(=O)NCCN1C(=O)c1ccc(Cc2cc3c(cc2C)C(C)(C)CCC3(C)C)o1 (stereo not shown) | 98%
4 | Cc1cc2c(cc1Cc1ccc(C(=O)N(Cc3ccccc3)[C@@H](C)c3ccccc3)o1)C(C)(C)CCC2(C)C [drawing 1542] | 46%
5 | Cc1cc2c(cc1Cc1ccc(C(=O)N(CCCN3CCN(C)CC3)Cc3cc(C)n(-c4cccc(C(F)(F)F)c4)c3C)o1)C(C)(C)CCC2(C)C [drawing 1488] | 102%
6 | Cc1cc2c(cc1Cc1ccc(C(=O)N3Cc4ccccc4CC3C(=O)NCC(c3ccccc3)c3ccccc3)o1)C(C)(C)CCC2(C)C (stereo not shown) | 9%
7 | Cc1cc2c(cc1Cc1ccc(C(=O)NC(CO)CC3CCCCC3)o1)C(C)(C)CCC2(C)C (stereo not shown) [drawing 1465] | 76%
8 | Cc1cc2c(cc1Cc1ccc(C(=O)N3CCN(CCN(C)C)CC3)o1)C(C)(C)CCC2(C)C | 98%
9 | Cc1cc2c(cc1Cc1ccc(C(=O)N(CCc3ccccn3)Cc3ccccc3)o1)C(C)(C)CCC2(C)C [drawing 1459] | 76%
10 | Cc1cc2c(cc1Cc1ccc(C(=O)N3CCC(O)CC3)o1)C(C)(C)CCC2(C)C [drawing 1510] | 77%
11 | Cc1cc2c(cc1Cc1ccc(C(=O)N3CCCCC3C)o1)C(C)(C)CCC2(C)C (stereo not shown) | 100%
12 | Cc1cc2c(cc1Cc1ccc(C(=O)N3CCN(Cc4ccccc4)CC3)o1)C(C)(C)CCC2(C)C | 83%
13 | Cc1cc2c(cc1Cc1ccc(C(=O)N(CCCN(C)C)CCCN(C)C)o1)C(C)(C)CCC2(C)C [drawing 1254] | 71%
14 | Cc1cc2c(cc1Cc1ccc(C(=O)N3CCN(C4Nc5ccccc5Oc5ccc(Cl)cc54)CC3)o1)C(C)(C)CCC2(C)C (stereo not shown) | 5%
15 | Cc1cc2c(cc1Cc1ccc(C(=O)N(Cc3ccsc3)C3CCN(Cc4ccccc4)C3)o1)C(C)(C)CCC2(C)C (stereo not shown) [drawing 1560] | 91%

Further lines, results first:

Row | inhibition at 10 µM | SMILES
16 | 86% | Cc1cc2c(cc1Cc1ccc(C(=O)NCC3CC3)o1)C(C)(C)CCC2(C)C
17 | 100% | CCOC(CNC(=O)c1ccc(Cc2cc3c(cc2C)C(C)(C)CCC3(C)C)o1)OCC
18 | 83% | COc1ccc(C(NC(=O)c2ccc(Cc3cc4c(cc3C)C(C)(C)CCC4(C)C)o2)C2CC2)cc1 (stereo not shown) [drawing 1435]
19 | 84% | Cc1cc2c(cc1Cc1ccc(C(=O)NCCc3c[nH]c4ccc(O)cc34)o1)C(C)(C)CCC2(C)C [drawing 1526]
20 | 92% | Cc1cc2c(cc1Cc1ccc(C(=O)NC(C)CN(C)C)o1)C(C)(C)CCC2(C)C (stereo not shown) [drawing 1584]
21 | 63% | Cc1cc2c(cc1Cc1ccc(C(=O)N[C@@H](C)C(O)c3ccccc3)o1)C(C)(C)CCC2(C)C (stereo partly shown)
22 | 85% | Cc1cc2c(cc1Cc1ccc(C(=O)N(CC(C)C)CC(C)C)o1)C(C)(C)CCC2(C)C [drawing 1501]
23 | 53% | Cc1cc2c(cc1Cc1ccc(C(=O)NCCO)o1)C(C)(C)CCC2(C)C [drawing 1527]
24 | 97% | Cc1ccc(C(C)NC(=O)c2ccc(Cc3cc4c(cc3C)C(C)(C)CCC4(C)C)o2)cc1 (stereo not shown)
25 | 103% | Cc1cc2c(cc1Cc1ccc(C(=O)NCCCCCCO)o1)C(C)(C)CCC2(C)C [drawing 1550]
26 | 81% | Cc1cc2c(cc1Cc1ccc(C(=O)NCCc3ccc(Cl)cc3)o1)C(C)(C)CCC2(C)C [drawing 1521]
27 | 51% | Cc1cc2c(cc1Cc1ccc(C(=O)N(C)Cc3cccc4ccccc34)o1)C(C)(C)CCC2(C)C
28 | 72% | Cc1cc2c(cc1Cc1ccc(C(=O)NC(C)CCCC(C)C)o1)C(C)(C)CCC2(C)C (stereo not shown) [drawing 1447]
29 | 14% | Cc1cc2c(cc1Cc1ccc(C(=O)NCC(O)CO)o1)C(C)(C)CCC2(C)C (stereo not shown)
30 | 98% | CCC(COC)NC(=O)c1ccc(Cc2cc3c(cc2C)C(C)(C)CCC3(C)C)o1 (stereo not shown)
31 | 84% | Cc1cc2c(cc1Cc1ccc(C(=O)N(Cc3ccccc3)C(C)C)o1)C(C)(C)CCC2(C)C [drawing 1541]
32 | 76% | COc1cccc(N2CCN(C(=O)c3ccc(Cc4cc5c(cc4C)C(C)(C)CCC5(C)C)o3)CC2C)c1 (stereo not shown) [drawing 1513]
33 | 90% | Cc1cc2c(cc1Cc1ccc(C(=O)NC(C)(C)CO)o1)C(C)(C)CCC2(C)C [drawing 1585]
34 | 65% | CCCCN(C(=O)c1ccc(Cc2cc3c(cc2C)C(C)(C)CCC3(C)C)o1)C(C)c1ccccc1 (stereo not shown) [drawing 1275]
35 | 91% | COCC(C)NC(=O)c1ccc(Cc2cc3c(cc2C)C(C)(C)CCC3(C)C)o1 (stereo not shown) [drawing 1454]
36 | 74% | Cc1cc2c(cc1Cc1ccc(C(=O)NCc3ccccc3-c3ccccc3)o1)C(C)(C)CCC2(C)C [drawing 1372]

Same assay, conditions: 1 h, substrate remaining; 10 uM compound; closer to zero = closer to 100% inhibition; read-out: S%R 10 uM mGnRHR

Row | SMILES | remaining activity at 10 µM
37 | Cc1cc2c(cc1Cc1ccc(C(=O)N3CCN(Cc4ccc(C(C)(C)C)cc4)CC3)o1)C(C)(C)CCC2(C)C [Compound 658] | 35%
38 | Cc1cc2c(cc1Cc1ccc(C(=O)N(CCC(c3ccccc3)c3ccccc3)Cc3ccccn3)o1)C(C)(C)CCC2(C)C [Compound 645] | 51%
39 | Cc1cc2c(cc1Cc1ccc(C(=O)Nc3ccc4[nH]c(-c5ccccn5)nc4c3)o1)C(C)(C)CCC2(C)C [Compound 477] | 47%
40 | CCOC(=O)N1CCN(C(=O)c2ccc(Cc3cc4c(cc3C)C(C)(C)CCC4(C)C)o2)CC1 [Compound 628] | 35%
41 | Cc1cc2c(cc1Cc1ccc(C(=O)N3CCN(C(=O)c4ccco4)CC3)o1)C(C)(C)CCC2(C)C [Compound 694] | 11%
42 | Cc1cc2c(cc1Cc1ccc(C(=O)N(Cc3cccnc3)Cc3cccn3C)o1)C(C)(C)CCC2(C)C [Compound 688] | 0%
43 | Cc1cc2c(cc1Cc1ccc(C(=O)NCc3cccc(CNC(=O)C(Cc4ccccc4)c4ccccc4)c3)o1)C(C)(C)CCC2(C)C (stereo not shown) [Compound 613] | 53%
44 | Cc1cnc(CNC(=O)c2ccc(Cc3cc4c(cc3C)C(C)(C)CCC4(C)C)o2)cn1 [Compound 525] | -9%
45 | Cc1cc2c(cc1Cc1ccc(C(=O)N(Cc3ccc(C(C)C)cc3)C3CCN(Cc4ccccc4)C3)o1)C(C)(C)CCC2(C)C (stereo not shown) [Compound 638] | 53%
46 | Cc1cc2c(cc1Cc1ccc(C(=O)N3CC=CCC3)o1)C(C)(C)CCC2(C)C [Compound 543] | 31%
47 | Cc1cc2c(cc1Cc1ccc(C(=O)N3CCN(CCOCCO)CC3)o1)C(C)(C)CCC2(C)C [Compound 686] | 37%
48 | Cc1cc2c(cc1Cc1ccc(C(=O)N(Cc3cccc4ccccc34)C3CCN(Cc4ccccc4)C3)o1)C(C)(C)CCC2(C)C (stereo not shown) [Compound 631] | 43%

Other lines, results leading:

Row | remaining activity at 10 µM | SMILES
49 | -2% | Cc1cc2c(cc1Cc1ccc(C(=O)N(CCN(C)C)Cc3ccccc3[N+](=O)[O-])o1)C(C)(C)CCC2(C)C [Compound 590]
50 | 7% | CCCNC(=O)c1ccc(Cc2cc3c(cc2C)C(C)(C)CCC3(C)C)o1 [Compound 687]
51 | 0% | CCN(CC)CCCNC(=O)c1ccc(Cc2cc3c(cc2C)C(C)(C)CCC3(C)C)o1 [Compound 707]
52 | -1% | Cc1cc2c(cc1Cc1ccc(C(=O)NCC(O)c3ccccc3)o1)C(C)(C)CCC2(C)C (stereo not shown) [Compound 596]
53 | 3% | Cc1cc2c(cc1Cc1ccc(C(=O)NCC(C)(C)CN(C)C)o1)C(C)(C)CCC2(C)C [Compound 620]
54 | 29% | Cc1cc2c(cc1Cc1ccc(C(=O)NCCNCCNc3ccccc3)o1)C(C)(C)CCC2(C)C [Compound 458]
55 | -2% | CCCCN(CCCC)CCCNC(=O)c1ccc(Cc2cc3c(cc2C)C(C)(C)CCC3(C)C)o1 [Compound 692]
56 | 9% | Cc1cc2c(cc1Cc1ccc(C(=O)N(CCC#N)Cc3cccnc3)o1)C(C)(C)CCC2(C)C [Compound 541]
57 | 13% | Cc1cc2c(cc1Cc1ccc(C(=O)NC(CO)C(C)C)o1)C(C)(C)CCC2(C)C (stereo not shown) [Compound 574]
58 | 46% | Cc1cc2c(cc1Cc1ccc(C(=O)NCCc3cccc(Oc4ccccc4)c3)o1)C(C)(C)CCC2(C)C [Compound 504]
59 | 29% | Cc1cc2c(cc1Cc1ccc(C(=O)NC(C)CCCC(C)C)o1)C(C)(C)CCC2(C)C (stereo not shown) [Compound 587]
60 | 48% | Cc1cc2c(cc1Cc1ccc(C(=O)NC3c4ccccc4-c4ccccc43)o1)C(C)(C)CCC2(C)C [Compound 570]
61 | 34% | CCOC(CN(CCc1ccccc1)C(=O)c1ccc(Cc2cc3c(cc2C)C(C)(C)CCC3(C)C)o1)OCC [Compound 689]
62 | 29% | Cc1cc2c(cc1Cc1ccc(C(=O)NC(C)c3ccccc3)o1)C(C)(C)CCC2(C)C (stereo not shown) [Compound 616]
63 | 4% | CSCCNC(=O)c1ccc(Cc2cc3c(cc2C)C(C)(C)CCC3(C)C)o1 [Compound 648]
64 | 7% | COc1ccc(OC)c(CCNC(=O)c2ccc(Cc3cc4c(cc3C)C(C)(C)CCC4(C)C)o2)c1 [Compound 508]
65 | 30% | Cc1cc2c(cc1Cc1ccc(C(=O)N3CCc4ccccc4C3)o1)C(C)(C)CCC2(C)C [Compound 562]
66 | 58% | CNCCCNC(=O)c1ccc(Cc2cc3c(cc2C)C(C)(C)CCC3(C)C)o1 [Compound 498]
67 | 17% | Cc1cc2c(cc1Cc1ccc(C(=O)NCC(C)(C)CO)o1)C(C)(C)CCC2(C)C [Compound 601]
